Results reported in patent US20130303479A1, “Antiretroviral Cyclonucleoside Compositions and Methods and Articles of Title of Invention Manufacture Therewith” (priority 2011, published 2013).
“Also recorded” adds a separate entry of the source.

Experiments:
Human recombinant dCK = Human recombinant dCK (Homo sapiens, UniProt P27707); assay: dCK inhibition curve with deoxyinosine as substrate; type: biochemical; settings: deoxyinosine (dIR) substrate, duplicate
Method: Inhibiting the activity of the dCK enzyme is useful. […] Human recombinant dCK activity was characterized using deoxyinosine (dIR) as a substrate. Assays were performed in duplicate in 200 μL of reaction mixture (96-well plate). Reactions were started by adding dIR at various concentrations and the percent inhibition was determined as compared to the positive control via spectrophotometer. […] (See FIG. 35).

HIV [1] = assay: Inhibition of HIV replication in experimental T cell cancer lines; type: cell-based
[2] = tested on: vsv-g pseudotyped HIV-1 virus; type: cell-based
HIV-1 (wt) = assay: Inhibition of HIV replication in primary peripheral blood mononuclear cells (p24 ELISA); type: cell-based; settings: Human immunodeficiency virus 1, PBMC, read-out: EC50, inhibition of HIV replication
Method: Human peripheral blood mononuclear cells (PBMCs) purified from donors were cultured (RPMI+10% FBS) and stimulated pre-infection (24 hrs) and every 3 days for three weeks with 2 ng/ml of phytoheaemagglutinin (PHA) and 1 U/ml IL-2. 24 hours following the initial stimulation the samples were incubated for one hour with the indicated amounts of NSC166641 and then infected with 300 ng HIV-1 (wt). Samples were analyzed via ELISA p24. (See FIG. 7).

[3] = in vivo; cited from earlier work
HIV [4] = assay: EC50 stated in embodiments, test not specified; type: cell-based
cells = settings: cited from earlier work
[5] = tested on: vsv-g pseudotyped HIV-1 virus; type: cell-based; remark: listed apart in the source
[6] = molecular target: T1, reverse transcriptase (RT) (Human immunodeficiency virus type 1 group M subtype B, UniProt P03366); assay: Roche reverse transcriptase assay kit; type: biochemical; settings: indicated amounts
T1 construct: Results of the Roche reverse transcriptase (AT) assay kit; purchased Roche
Method: Results of the Roche reverse transcriptase […] assay kit utilizing the indicated amounts of NSC166641. RT activity was measured as a percentage compared to the positive control. […] (See FIG. 9).

HIV-1 (wt) virus = type: cell-based
Method: G11 HIV reporter cells (200K) were seeded in 5 ml falcon tubes (RPMI+10% FBS) and incubated with the indicated amounts of NSC129220 (CAS 10212-28-9) for one hour before infection with HIV-1 (wt) virus (250 ng). Samples were stained with propidium iodide and analyzed for GFP expression via flow cytometer at 48 and 72 hours post infection. (See FIG. 2).
Example FACS dot plots of live G11 cells expressing HIV induced expression of GFP. […] (See FIG. 27).

Human recombinant dCK, sequence (P27707 whole entry): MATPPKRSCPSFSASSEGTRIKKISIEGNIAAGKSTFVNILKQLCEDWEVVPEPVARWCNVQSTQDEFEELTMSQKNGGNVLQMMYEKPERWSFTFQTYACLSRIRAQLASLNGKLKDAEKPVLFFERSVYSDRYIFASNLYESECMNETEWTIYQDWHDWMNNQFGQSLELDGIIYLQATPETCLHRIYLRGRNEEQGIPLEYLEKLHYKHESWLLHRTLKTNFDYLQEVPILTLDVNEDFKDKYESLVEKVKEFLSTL

Compound: N=c1nc2n(cc1F)[C@@H]1O[C@H](CO)[C@@H](O)[C@@H]1O2 [AAFC, 5-fluoro-2,2′cyclocytidine]
- IC50 (Human recombinant dCK): 32 µM
- EC50 (HIV [1]; Human immunodeficiency virus 1, read-out: EC50, inhibition of HIV replication, experimental T cell cancer lines): < 500 nM
- concentration directly inhibiting HIV replication in vitro (HIV [1]; a number of experimental cell lines and primary cells): < 500 nM
- inhibition of HIV replication on post infection treatment (HIV [1]; post exposure of cells infected with HIV-1, experimental cell lines): dramatically inhibit HIV replication
- rescue of luciferase expression by dC, dT or both [2]: addition of dC but not dT may be able to rescue luciferase expression in treated cells
- rescue of luciferase expression by deoxycytidine [2]: Addition of dC appears to be able to rescue luciferase expression in treated cells; also recorded: Addition of dC is able to rescue luciferase expression in treated cells
- EC50 (HIV-1 (wt)): < 0.7 nM
- fraction of reagent passed through the body unchanged [3]: over 80%
- phosphorylation compared to Ara-C [3]: less easily phosphorylated as compared to Ara-C
- EC50 (HIV [4]; Human immunodeficiency virus 1, another aspect of embodiments, read-out: EC50): ~10 nM
- EC50 (HIV [4]; Human immunodeficiency virus 1, one aspect of embodiments): ~0.7 nM
- reversal of cell growth inhibition by nucleosides (cells): reversed by deoxycytidine but not by thymidine and deoxyuridine
- thymidine incorporation (cells): inhibited thymidine incorporation into the acid-soluble fraction (DNA) of the cells
- dose dependent effect on Clone 64 cells [5]: dose dependent effect
- dose-dependent activity (luciferase) [5]: Dose-dependent activity was detected
- lowest dose at which anti-HIV activity was seen [5]: 40 µM
- inhibition of RT activity vs positive control [6]: little or no inhibition of RT

Compound: Cc1cn([C@H]2C[C@H](N=[N+]=[N-])[C@@H](CO)O2)c(=O)[nH]c1=O [AZT, zidovudine]
- dose dependent effect on Clone 64 cells [5]: dose dependent effect

Compound: O=C(O)c1ccccc1 [Benzoic acid]
- anti-HIV activity in screen (luciferase expression) [5]: Activity was not detected

Compound: CC(=O)O.N=c1ccn2c(n1)OC1C(O)C(CO)OC12 (centres unmarked) [NSC129220, O2,2′-cyclocytidine monoacetate]
- rescue of luciferase expression by deoxycytidine [2]: Addition of dC is able to rescue luciferase expression in treated cells
- cell viability (HIV-1 (wt) virus; FACS GFP assay, treated reporter cells (FIG. 27)): > 60%
- inhibition of HIV induced GFP expression (confirmation of screen) (HIV-1 (wt) virus; live G11 cells, FACS dot plots): inhibition of HIV
- dose-dependent activity (luciferase) [5]: Dose-dependent activity was detected
- lowest dose at which anti-HIV activity was seen [5]: 40 µM

Compound: Cl.N=c1ccn2c(n1)O[C@H]1[C@H](O)[C@@H](CO)O[C@H]12 [O2,2′-cyclocytidine hydrochloride]
- lowest dose at which anti-HIV activity was seen [5]: 40 µM

Compound: O=C1CN=C(c2ccc[nH]2)c2cc(Cl)ccc2N1 [benzodiazipen, Benzodiazepen]
- anti-HIV activity in screen (luciferase expression) [5]: Anti-HIV activity was detected

Compound: CCOC(N)=O [ethyl carbamate]
- anti-HIV activity in screen (luciferase expression) [5]: Activity was not detected

Compound: COc1ccc2[nH]c3c(C)c4ccncc4c(C)c3c2c1 [methoxyellipticine, Methoxyellipticine]
- anti-HIV activity in screen (luciferase expression) [5]: Anti-HIV activity was detected

Compound: c1ccc2ccccc2c1 [napthalen]
- anti-HIV activity in screen (luciferase expression) [5]: Activity was not detected
